Measurements published in EP4606800A1, “COMPOUND BASED ON ORYDALMINE STRUCTURE AND USE THEREOF” (Beijing Tide Pharmaceutical Co., Ltd., priority 2022, dated 2024).

Assays:
[1] = system: Acetic Acid-induced Writhing Model; experiment: Analgesia test in acetic acid-induced writhing model (oral gavage); format: in vivo; conditions: CD-1 mice, n=5, mean ± standard error, single oral gavage; for Number of Writhing 5-15 min: 5-15 min after injection of 0.6% glacial acetic acid, acetic acid 2h after administration (Fentanyl intravenous, 10 min after). Dose mg/kg: Fentanyl 0.008, A10-0 18.0, A3 30.0, A10 30.1, A14 30.6, A15 20.6, A17 18.7, A18 32.3, A21 31.8, A22 22.3, A7 40.7, A19 18.4, A23 28.4, A44 32.0, A24 25.5, A53 26.9, A40 34.5, A55 40.5, A57 26.7, A4 30; for Number of Writhing 15-30 min: 15-30 min after injection of 0.6% glacial acetic acid, acetic acid 2h after administration (Fentanyl intravenous, 10 min after). Dose mg/kg: Fentanyl 0.008, A10-0 18.0, A3 30.0, A10 30.1, A14 30.6, A15 20.6, A17 18.7, A18 32.3, A21 31.8, A22 22.3, A7 40.7, A19 18.4, A23 28.4, A44 32.0, A24 25.5, A53 26.9, A40 34.5, A55 40.5, A57 26.7, A4 3; for Time to start writhing: 0.6% glacial acetic acid 2h after administration (Fentanyl intravenous, 10 min after). Dose mg/kg: Fentanyl 0.008, A10-0 18.0, A3 30.0, A10 30.1, A14 30.6, A15 20.6, A17 18.7, A18 32.3, A21 31.8, A22 22.3, A7 40.7, A19 18.4, A23 28.4, A44 32.0, A24 25.5, A53 26.9, A40 34.5, A55 40.5, A57 26.7, A4 30.0; for Number of Writhing Total: total of 5-15 min and 15-30 min after injection of 0.6% glacial acetic acid, acetic acid 2h after administration (Fentanyl intravenous, 10 min after). Dose mg/kg: Fentanyl 0.008, A10-0 18.0, A3 30.0, A10 30.1, A14 30.6, A15 20.6, A17 18.7, A18 32.3, A21 31.8, A22 22.3, A7 40.7, A19 18.4, A23 28.4, A44 32.0, A24 25.5, A53 26.9, A40 34.5, A5
[2] = system: inflammatory pain model induced by complete Freund's adjuvant in mice; experiment: Mechanical pain test of inflammatory pain model induced by complete Freund's adjuvant in mice; format: in vivo, mice (C57BL/6J); conditions: C57BL/6J male mice, n=4; tested 0.5h, 2h, 8h, 24h after first administration; Morphine 2 mg/kg subcutaneous; A10-0 5 mg/kg and A3 8.4 mg/kg oral gavage at intervals of 8h

Row | Compound | Number of Writhing 5-15 min [1] | Number of Writhing 15-30 min [1] | Time to start writhing [1] | Number of Writhing Total [1] | analgesic effect on the inflammatory pain model in mice (mechanical pain threshold, Fig. 1) [2] | effect of reducing the sole-swelling degree in mice (plantar thickness, Fig. 2) [2]
1 | COc1cc2c(cc1OC)[C@@H]1Cc3ccc(OC(=O)[C@@H](C)c4ccc(-c5ccccc5)c(F)c4)c(OC)c3CN1CC2 [Compound A4] | 14±14 | 12±14 | 154 ± 151 s | 26±27 |  | 
2 | CN1CC[C@]23c4c5ccc(O)c4O[C@H]2[C@@H](O)C=C[C@H]3[C@H]1C5 [Morphine] |  |  |  |  | a good analgesic effect on the inflammatory pain mode in mice, but the effect cannot be maintained for a long term | did not have an effect of reducing the sole-swelling degree in mice
3 | COc1cc2c(cc1OC)[C@@H]1Cc3ccc(O)c(OC)c3CN1CC2 [Compound A10-0, Corydalmine] | 4±3 | 5±3 | 545 ± 221 s | 9±2 | did not have a significant analgesic effect on the inflammatory pain model in mice | had an effect of reducing the sole-welling degree in mice, but the effect was maintained for a short time
